Measurements taken from patent US20130296311A1, “INHIBITORS OF HCV NS5A” (PRESIDIO PHARMACEUTICALS, INC., priority 2010, published 2013).
Read-outs that look alike come from different tables or passages of the source.

Tested on: HCV 1b_Huh-Luc/Neo-ET cell line persistently expressing a bicistronic genotype 1b replicon in Huh 7 cells
Assay: HCV replicon assay (luciferase readout, 72 h)
Type: cell-based, HCV genotype 1b
Conditions: Hepatitis C virus
Method in brief: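 Huh 7 cells carrying a bicistronic genotype 1b luciferase/neo replicon received compound in triplicate the day after plating. After 72 h, replicon levels were read as Bright-Glo luciferase activity, expressed as % of control; EC50 was fitted with a four-parameter logistic and determined several times.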

[1] = Huh-7, 72 h, read-out: Inhibition of HCV genotype 1b
[2] = Huh-7, read-out: Inhibition of HCV genotype 1b

Compound	EC50 [1] [nM]	also measured
COC(=O)N[C@@H](C(=O)N1CCC[C@H]1c1ncc(-c2ccc(C#Cc3ccc(-c4cnc([C@@H]5CCCN5C(=O)[C@@H]5CCCO5)[nH]4)cc3)cc2)[nH]1)c1ccccc1 [Compound 186]	< 1	–
COC(=O)N[C@@H](C(=O)N1CCC[C@H]1c1nc2ccc(C#Cc3ccc4nc([C@@H]5CCCN5C(=O)[C@H](NC(=O)OC)C(C)C)[nH]c4c3)cc2[nH]1)C(C)C [Compound 853]	–	EC50 (Huh-7, 72 h, read-out: Inhibition of HCV): < 1 nM
COC(=O)N[C@H](C(=O)N1CCC[C@H]1c1ncc(-c2ccc(C#Cc3ccc(-c4cnc([C@@H]5CCCN5C(=O)[C@@H](NC(=O)OC)C5CCOCC5)[nH]4)cc3)cc2)[nH]1)C1CCCC1 [Compound 1221]	–	EC50 [2]: < 1 nM
COC(=O)N[C@@H](C(=O)N1CCC[C@H]1CNC(=O)c1ccc(C#Cc2ccc3nc([C@@H]4CCCN4C(=O)[C@H](NC(=O)OC)c4ccccc4)[nH]c3c2)cn1)c1ccccc1 [Compound 1241]	–	EC50 [2]: < 1 nM
C[C@@H](NC(=O)C1CC1)C(=O)N1CCC[C@H]1c1ncc(C#Cc2ccc(-c3cnc([C@@H]4CCCN4C(=O)[C@@H](C)NC(=O)C4CC4)[nH]3)cc2)[nH]1 [Compound 111]	1 to 9.9	–
CC(C)(C)OC(=O)N[C@@H](C(=O)N1CCC[C@H]1C(=O)NCc1ccc(C#Cc2cnc([C@@H]3CCCN3C(=O)[C@H](NC(=O)OC(C)(C)C)c3ccccc3)[nH]2)cc1)c1ccccc1 [Compound 119]	< 1	–
CC(C)(C)OC(=O)N1CCC[C@H]1c1ncc(C#Cc2ccc(-c3cnc([C@@H]4CCCN4C(=O)OC(C)(C)C)[nH]3)cc2)[nH]1 [Compound 101]	10 to 999	–
COC(=O)N[C@H](C(=O)N1CCC[C@H]1c1ncc(-c2ccc(C#Cc3ccc(-c4cnc([C@@H]5CCCN5C(=O)[C@@H](c5ccccc5)N(C)C)[nH]4)cc3)cc2)[nH]1)C(C)C [Compound 955]	< 1	–
COC(=O)N[C@H](C(=O)N1CCC[C@H]1c1ncc(-c2ccc(C#Cc3ccc(-c4cnc([C@@H]5CCCN5C(=O)[C@@H](NC(=O)OC)[C@@H](C)O)[nH]4)cc3)cc2)[nH]1)[C@@H](C)O [Compound 283]	< 1	–
COC(=O)N[C@H](C(=O)N1CCC[C@H]1c1ncc(-c2ccc(C#Cc3ccc4nc([C@@H]5CCCN5C(=O)[C@@H](NC(=O)OC)C5CC5)[nH]c4c3)cc2)[nH]1)C1CC1 [Compound 1029]	< 1	–
COC(=O)N[C@@H](C(=O)N1CCC[C@H]1c1ncc(-c2ccc(C#Cc3ccc(-c4cnc([C@@H]5CCCN5C(=O)[C@H](OC)c5ccccc5)[nH]4)cc3)cc2)[nH]1)c1ccccc1 [Compound 179]	< 1	–
CC(C)[C@@H](NC(=O)OC(C)(C)C)C(=O)N1CCC[C@H]1C(=O)Nc1ccc(C#Cc2cnc([C@@H]3CCCN3C(=O)[C@H](NC(=O)OC(C)(C)C)C(C)C)[nH]2)cc1 [Compound 114]	10 to 999	–
COCCOc1c(C#Cc2ccc3nc([C@@H]4CCCN4C(=O)[C@@H](NC(=O)OC)C(C)C)[nH]c3c2)ccc(-c2cnc([C@@H]3CCCN3C(=O)[C@H](NC(=O)OC)C(C)C)[nH]2)c1OCCOC [Compound 1066]	< 1	–
C#CC[C@H](NC(=O)OC)C(=O)N1CCC[C@H]1c1nc2ccc(C#Cc3ccc4c(c3)CCCc3nc([C@@H]5CCCN5C(=O)[C@@H](NC(=O)OC)C(C)C)[nH]c3-4)cc2[nH]1 [Compound 1284]	–	EC50 [2]: < 1 nM
COC(=O)N[C@H](C(=O)N1CCC[C@H]1c1nc2ccc(C#Cc3ccc(-c4cnc([C@@H]5CCCN5C(=O)[C@@H](NC(=O)OC)[C@@H](C)OC)[nH]4)cc3)cc2[nH]1)C(C)C [Compound 1235]	–	EC50 [2]: < 1 nM
CC(C)[C@H](NC(=O)N1CCN(C)CC1)C(=O)N1CCC[C@H]1c1ncc(-c2ccc(C#Cc3ccc(-c4cnc([C@@H]5CCCN5C(=O)[C@@H](NC(=O)N5CCN(C)CC5)C(C)C)[nH]4)cc3)cc2)[nH]1 [Compound 287]	> 1000	–
COC(=O)N[C@@H](C(=O)N1CCC[C@H]1c1ncc(-c2ccc(C#Cc3ccc(-c4cnc([C@@H]5CCCN5C(=O)Nc5ccccc5)[nH]4)cc3)cc2)[nH]1)c1ccccc1 [Compound 196]	1 to 9.9	–
O=C(N[C@@H](C(=O)N1CCC[C@H]1c1ncc(C#Cc2ccc(-c3cnc([C@@H]4CCCN4C(=O)[C@H](NC(=O)C4CC4)c4ccccc4)[nH]3)cc2)[nH]1)c1ccccc1)C1CC1 [Compound 100]	< 1	–
COC(=O)N[C@H](C(=O)N1CCC[C@H]1c1nc2c([nH]1)-c1ccc(C#Cc3ccc(-c4cnc([C@@H]5CCCN5C(=O)[C@@H](NC(=O)OC)C5CCOCC5)[nH]4)cc3)cc1CC2)C(C)C [Compound 1091]	< 1	–
C[C@@H](NC(=O)C1CC1)C(=O)N1CCC[C@H]1c1ncc(-c2ccc(C#Cc3ccc(-c4cnc([C@@H]5CCCN5C(=O)[C@@H](C)NC(=O)C5CC5)[nH]4)cc3)cc2)[nH]1 [Compound 154]	1 to 9.9	–
COC(=O)N[C@H](C(=O)N1CCC[C@H]1c1nc2c([nH]1)-c1ccc(C#Cc3ccc4nc([C@@H]5CCCN5C(=O)[C@H](NC(=O)OC5CCOCC5)c5ccccc5)[nH]c4c3)cc1CC2)C(C)C [Compound 1104]	< 1	–

Compound	EC50 [1] [nM]	also measured
COC(=O)N[C@H](C(=O)N1CCC[C@H]1c1ncc(-c2ccc(C#Cc3ccc4nc([C@@H]5CCCN5C(=O)[C@@H](NC(=O)OC)C5CCOCC5)[nH]c4c3)cc2F)[nH]1)C1CCOCC1 [Compound 1070]	< 1	–
COC(=O)N[C@H](C(=O)N1CCC[C@H]1c1nc2ccc(C#Cc3ccc(-c4cnc([C@@H]5CCCN5)[nH]4)cc3)cc2[nH]1)C(C)C [Compound 1055]	10 to 999	–
COC(=O)N[C@H](C(=O)N1CCC[C@H]1c1ncc(-c2ccc(C#Cc3ccc(-c4cnc([C@@H]5CCCN5C(=O)[C@H](NC(=O)OC)c5ccccc5)[nH]4)cc3)cc2)[nH]1)[C@@H](C)OC [Compound 1210]	–	EC50 [2]: < 1 nM
O=C(N[C@@H](C(=O)N1CCC[C@H]1c1ncc(-c2ccc(C#Cc3ccc(-c4cnc([C@@H]5CCCN5C(=O)[C@H](NC(=O)OC5CCOCC5)c5ccccc5)[nH]4)c(F)c3)cc2)[nH]1)c1ccccc1)OC1CCOCC1 [Compound 1014]	< 1	–
COC(=O)N[C@H](C(=O)N1CCC[C@H]1c1nc(-c2ccc3cc(C#Cc4cnc([C@@H]5CCCN5C(=O)[C@H](NC(=O)OC)c5ccccc5)[nH]4)ccc3c2)c[nH]1)C(C)C [Compound 1077]	< 1	–
COC(=O)N[C@H](C(=O)N1CCC[C@H]1c1nc(-c2ccc3cc(C#Cc4cnc([C@@H]5CCCN5C(=O)[C@@H](NC(=O)OC)C(C)C)[nH]4)ccc3c2)c[nH]1)c1ccccc1 [Compound 1078]	< 1	–
COC(=O)N[C@@H](C(=O)N1CCC[C@H]1c1ncc(-c2ccc(C#Cc3ccc(-c4cnc([C@@H]5CCCN5C(=O)[C@H](NC(=O)[C@H]5CCCO5)c5ccccc5)[nH]4)cc3)cc2)[nH]1)c1ccccc1 [Compound 201]	< 1	–
COC(=O)N[C@@H](C(=O)N[C@@H](C)c1ncc(-c2ccc(C#Cc3ccc4nc([C@@H]5CCCN5C(=O)[C@H](NC(=O)OC)c5ccccc5)[nH]c4c3)cc2)[nH]1)c1ccccc1 [Compound 1226]	–	EC50 [2]: < 1 nM
COC(=O)N[C@H](C(=O)N1CCC[C@H]1c1ncc(-c2ccc(C#Cc3ccc4nc([C@@H]5CCCN5C(=O)[C@H](C(C)C)N(C)C)[nH]c4c3)cc2)[nH]1)C(C)C [Compound 1021]	< 1	–
CC(C)[C@@H](NC(=O)N1CCC(O)CC1)C(=O)N1CCC[C@H]1c1ncc(-c2ccc(C#Cc3ccc(-c4cnc([C@@H]5CCCN5C(=O)[C@H](NC(=O)N5CCC(O)CC5)C(C)C)[nH]4)cc3)cc2)[nH]1 [Compound 959]	< 1	–
O=C(N[C@@H](C(=O)N1CCC[C@H]1c1ncc(-c2ccc(C#Cc3ccc(-c4cnc([C@@H]5CCCN5C(=O)[C@H](NC(=O)N5CCCC5)c5ccccc5)[nH]4)cc3)cc2)[nH]1)c1ccccc1)N1CCCC1 [Compound 249]	< 1	–
COC(=O)N[C@@H](C(=O)N1CCN(C(C)=O)C[C@H]1c1ncc(-c2ccc(C#Cc3ccc4nc([C@@H]5CCCN5C(=O)[C@H](NC(=O)OC)c5ccccc5)[nH]c4c3)cc2)[nH]1)c1ccccc1 [Compound 1233]	–	EC50 [2]: < 1 nM
COC(=O)N[C@@H](C(=O)N1CCC[C@H]1c1ncc(-c2ccc(C#Cc3ccc(-c4cnc([C@@H]5CCCN5C(=O)Cc5cccnc5)[nH]4)cc3)cc2)[nH]1)c1ccccc1 [Compound 181]	< 1	–
O=C(NCC(=O)N1CCC[C@H]1c1ncc(C#Cc2ccc(-c3cnc([C@@H]4CCCN4C(=O)CNC(=O)C4CC4)[nH]3)cc2)[nH]1)C1CC1 [Compound 113]	10 to 999	–
C[C@@H](NC(=O)[C@@H]1CCCN1C(=O)[C@H](NC(=O)C1CC1)c1ccccc1)c1ccc(C#Cc2ccc(-c3cnc([C@@H]4CCCN4C(=O)[C@H](NC(=O)C4CC4)c4ccccc4)[nH]3)cc2)cc1 [Compound 168]	< 1	–
O=C(NC[C@@H]1CCCN1C(=O)[C@H](NC(=O)C1CC1)c1ccccc1)c1ccc(C#Cc2ccc(-c3cnc([C@@H]4CCCN4C(=O)[C@H](NC(=O)C4CC4)c4ccccc4)[nH]3)cc2)cc1 [Compound 193]	< 1	–
COC(=O)N[C@H](C(=O)N1CCC[C@H]1c1ncc(C#Cc2ccc3cc(-c4cnc([C@@H]5CCCN5C(=O)[C@@H](NC(=O)OC)C5CCOCC5)[nH]4)ccc3c2)[nH]1)C1CCOCC1 [Compound 1080]	< 1	–
COC(=O)N[C@@H](C(=O)N1CCC[C@H]1c1ncc(-c2ccc(C#Cc3ccc(-c4cnc([C@@H]5CCCN5C(=O)[C@H](NC(=O)[C@@H]5CCCO5)c5ccccc5)[nH]4)cc3)cc2)[nH]1)c1ccccc1 [Compound 195]	< 1	–
O=C(N[C@@H](C(=O)N1CCC[C@H]1c1ncc(-c2ccc(C#Cc3ccc(-c4cnc([C@@H]5CCCN5C(=O)[C@H](NC(=O)N5CCOCC5)c5ccccc5)[nH]4)cc3)cc2)[nH]1)c1ccccc1)N1CCOCC1 [Compound 248]	< 1	–
CS(=O)(=O)N[C@@H](C(=O)N1CCC[C@H]1c1ncc(-c2ccc(C#Cc3ccc(-c4cnc([C@@H]5CCCN5C(=O)[C@@H](c5ccccc5)N5CCOCC5)[nH]4)cc3)cc2)[nH]1)c1ccccc1 [Compound 232]	< 1	–
O=C(N[C@@H](C(=O)N1CCC[C@H]1c1ncc(-c2ccc(C#Cc3ccc(-c4cnc([C@@H]5CCCN5C(=O)[C@H](NC(=O)N5CC[C@@H](O)C5)c5ccccc5)[nH]4)cc3)cc2)[nH]1)c1ccccc1)N1CC[C@@H](O)C1 [Compound 252]	< 1	–
